Reference: patent US11497752B2, “Compounds and uses thereof” (Foghorn Therapeutics Inc., priority 2018, dated 2022)

Key:
[1] = biological target: BRM (Homo sapiens, UniProt P51531); test: ATPase catalytic activity of BRM (ADP-Glo in vitro biochemical assay); conditions: for BRM Max % Inhibition: Table 6
[2] = biological target: BRG-1 (Homo sapiens, UniProt P51532); test: ATPase catalytic activity of BRG-1 (ADP-Glo in vitro biochemical assay); conditions: for BRG1 Max % Inhibition: Table 6
BRG-1, sequence (P51532 whole entry): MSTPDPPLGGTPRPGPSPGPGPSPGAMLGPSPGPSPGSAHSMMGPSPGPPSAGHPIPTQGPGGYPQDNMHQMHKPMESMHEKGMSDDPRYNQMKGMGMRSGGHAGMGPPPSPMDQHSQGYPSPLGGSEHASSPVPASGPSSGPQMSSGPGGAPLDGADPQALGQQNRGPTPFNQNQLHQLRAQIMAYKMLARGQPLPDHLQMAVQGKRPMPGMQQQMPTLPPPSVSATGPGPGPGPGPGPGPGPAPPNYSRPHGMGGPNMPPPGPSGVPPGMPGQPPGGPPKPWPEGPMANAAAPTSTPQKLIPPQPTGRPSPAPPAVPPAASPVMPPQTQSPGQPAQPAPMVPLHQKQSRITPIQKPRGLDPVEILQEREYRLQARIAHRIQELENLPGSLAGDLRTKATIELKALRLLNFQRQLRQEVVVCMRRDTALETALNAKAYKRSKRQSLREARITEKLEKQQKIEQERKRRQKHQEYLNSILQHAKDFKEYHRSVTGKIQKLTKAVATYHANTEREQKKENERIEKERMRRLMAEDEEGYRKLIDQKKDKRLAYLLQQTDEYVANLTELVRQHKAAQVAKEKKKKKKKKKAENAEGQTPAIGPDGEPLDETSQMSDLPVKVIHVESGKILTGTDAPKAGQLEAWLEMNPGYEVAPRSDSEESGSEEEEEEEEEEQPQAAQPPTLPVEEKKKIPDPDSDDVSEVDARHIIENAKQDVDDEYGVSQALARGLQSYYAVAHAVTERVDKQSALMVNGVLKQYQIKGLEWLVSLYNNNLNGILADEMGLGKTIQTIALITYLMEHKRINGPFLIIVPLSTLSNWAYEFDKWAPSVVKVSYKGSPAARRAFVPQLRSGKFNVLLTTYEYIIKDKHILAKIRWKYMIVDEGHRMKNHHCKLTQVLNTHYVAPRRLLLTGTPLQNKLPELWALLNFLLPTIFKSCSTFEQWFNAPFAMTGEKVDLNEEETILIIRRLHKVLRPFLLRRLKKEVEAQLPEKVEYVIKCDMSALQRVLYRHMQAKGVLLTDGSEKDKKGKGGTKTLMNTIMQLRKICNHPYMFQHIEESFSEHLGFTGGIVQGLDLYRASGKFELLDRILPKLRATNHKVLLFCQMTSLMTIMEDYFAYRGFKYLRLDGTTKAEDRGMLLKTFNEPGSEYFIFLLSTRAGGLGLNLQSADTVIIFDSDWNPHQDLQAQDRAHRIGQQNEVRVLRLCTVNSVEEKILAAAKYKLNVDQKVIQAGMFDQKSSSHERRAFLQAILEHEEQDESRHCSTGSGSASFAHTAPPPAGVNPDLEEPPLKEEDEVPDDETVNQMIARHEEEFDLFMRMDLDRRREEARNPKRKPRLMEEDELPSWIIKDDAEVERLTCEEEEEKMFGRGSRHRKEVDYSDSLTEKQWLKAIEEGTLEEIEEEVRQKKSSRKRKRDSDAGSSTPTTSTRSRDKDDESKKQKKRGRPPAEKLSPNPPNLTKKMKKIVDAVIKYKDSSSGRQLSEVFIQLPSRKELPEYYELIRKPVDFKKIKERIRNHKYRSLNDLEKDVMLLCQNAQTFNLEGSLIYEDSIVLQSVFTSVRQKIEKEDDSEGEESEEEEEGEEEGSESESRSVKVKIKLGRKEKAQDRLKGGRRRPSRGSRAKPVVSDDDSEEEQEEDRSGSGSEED

BRM, sequence (P51531 whole entry): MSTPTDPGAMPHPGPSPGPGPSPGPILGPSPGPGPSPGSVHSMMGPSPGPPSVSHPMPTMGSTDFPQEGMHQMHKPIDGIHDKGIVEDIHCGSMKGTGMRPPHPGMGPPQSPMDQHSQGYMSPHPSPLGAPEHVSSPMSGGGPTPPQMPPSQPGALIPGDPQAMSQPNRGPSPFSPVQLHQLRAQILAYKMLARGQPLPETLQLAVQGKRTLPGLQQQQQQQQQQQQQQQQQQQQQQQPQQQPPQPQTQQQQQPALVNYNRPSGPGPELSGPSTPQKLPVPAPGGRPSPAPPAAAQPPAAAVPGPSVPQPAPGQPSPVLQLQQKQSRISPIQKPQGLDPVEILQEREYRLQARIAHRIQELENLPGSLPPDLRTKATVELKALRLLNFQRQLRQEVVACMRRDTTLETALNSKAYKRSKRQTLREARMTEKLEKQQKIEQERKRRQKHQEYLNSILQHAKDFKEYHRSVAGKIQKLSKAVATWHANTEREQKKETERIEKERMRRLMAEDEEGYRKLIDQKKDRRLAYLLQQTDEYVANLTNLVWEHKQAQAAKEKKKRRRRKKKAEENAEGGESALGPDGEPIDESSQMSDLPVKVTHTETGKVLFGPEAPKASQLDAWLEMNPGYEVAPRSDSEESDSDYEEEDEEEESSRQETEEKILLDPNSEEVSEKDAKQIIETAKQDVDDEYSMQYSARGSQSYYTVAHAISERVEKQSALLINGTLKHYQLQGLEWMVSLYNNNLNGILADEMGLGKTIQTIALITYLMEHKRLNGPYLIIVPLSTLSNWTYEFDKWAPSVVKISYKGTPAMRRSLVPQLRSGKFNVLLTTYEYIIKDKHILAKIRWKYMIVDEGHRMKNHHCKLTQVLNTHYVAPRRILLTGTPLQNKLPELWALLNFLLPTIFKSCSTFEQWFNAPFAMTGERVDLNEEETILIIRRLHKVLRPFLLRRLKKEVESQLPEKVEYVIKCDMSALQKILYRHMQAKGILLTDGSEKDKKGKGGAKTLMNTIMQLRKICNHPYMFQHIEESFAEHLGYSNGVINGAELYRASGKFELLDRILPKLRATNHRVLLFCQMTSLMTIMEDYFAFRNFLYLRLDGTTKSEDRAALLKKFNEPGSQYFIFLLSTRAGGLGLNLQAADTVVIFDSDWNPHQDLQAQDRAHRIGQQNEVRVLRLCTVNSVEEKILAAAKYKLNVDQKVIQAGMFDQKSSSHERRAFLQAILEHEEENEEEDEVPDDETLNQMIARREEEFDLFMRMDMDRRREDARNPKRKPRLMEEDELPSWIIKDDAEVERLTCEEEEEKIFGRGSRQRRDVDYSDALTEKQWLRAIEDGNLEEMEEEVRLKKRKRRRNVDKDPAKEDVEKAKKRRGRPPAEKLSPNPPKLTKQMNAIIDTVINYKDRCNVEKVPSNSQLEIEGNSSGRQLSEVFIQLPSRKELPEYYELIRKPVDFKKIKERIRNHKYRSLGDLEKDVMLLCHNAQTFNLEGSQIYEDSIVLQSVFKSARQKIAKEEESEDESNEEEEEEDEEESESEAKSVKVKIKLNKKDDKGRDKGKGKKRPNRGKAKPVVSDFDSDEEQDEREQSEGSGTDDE

| Compound | IC50 [1] [nM] | BRM Max % Inhibition [1] [%] | IC50 [2] [nM] | BRG1 Max % Inhibition [2] [%] |
| --- | --- | --- | --- | --- |
| CN(C)CCNC(=O)Cc1cc(-c2cccc(-c3csc(NC(=O)CNC(=O)c4ccc(N)cc4)n3)c2)ccn1 [Compound 186, 4-amino-N-[2-[[4-[3-[2-[2-[2-(dimethylamino)ethylamino]-2-oxo-ethyl]-4-pyridyl]phenyl]thiazol-2-yl]amino]-2-oxo-ethyl]benzamide] | 100 to 1000 | >95 | 100 to 1000 | >95 |
| Nc1ccc(C(=O)NCC(=O)Nc2nc(-c3cccc(N4CCC(C(=O)O)CC4)c3)cs2)cc1 [Compound 187, 1-[3-[2-[[2-[(4-aminobenzoyl)amino]acetyl]amino]thiazol-4-yl]phenyl]piperidine-4-carboxylic acid] | 100 to 1000 | >70 | 100 to 1000 | >60 |
| Cc1ccc(-c2csc(NC(=O)CNC(=O)c3ccc(N)cc3)n2)cc1-c1ccncc1 [Compound 188, 4-amino-N-[2-[[4-[4-methyl-3-(4-pyridyl)phenyl]thiazol-2-yl]amino]-2-oxo-ethyl]benzamide] | < 100 | >95 | < 100 | >80 |
| CN(C)CCNc1cc(-c2cccc(-c3csc(NC(=O)CNC(=O)c4ccc(N)cc4)n3)c2)ccn1 [Compound 189, 4-amino-N-[2-[[4-[3-[2-[2-(dimethylamino)ethylamino]-4-pyridyl]phenyl]thiazol-2-yl]amino]-2-oxo-ethyl]benzamide] | 100 to 1000 | >90 | 100 to 1000 | >90 |
| CN1CCN(c2cc(-c3cccc(-c4csc(NC(=O)CNC(=O)c5ccc(N)cc5)n4)c3)ccn2)CC1 [Compound 190, 4-amino-N-[2-[[4-[3-[2-(4-methylpiperazin-1-yl)-4-pyridyl]phenyl]thiazol-2-yl]amino]-2-oxo-ethyl]benzamide] | 100 to 1000 | >80 | 100 to 1000 | >80 |
| CN(C)CCN(C)c1cc(-c2cccc(-c3csc(NC(=O)CNC(=O)c4ccc(N)cc4)n3)c2)ccn1 [Compound 191, 4-amino-N-[2-[[4-[3-[2-[2-(dimethylamino)ethyl-methyl-amino]-4-pyridyl]phenyl]thiazol-2-yl]amino]-2-oxo-ethyl]benzamide] | < 100 | >95 | 100 to 1000 | >95 |
| Nc1ccc(C(=O)NCC(=O)Nc2nc(-c3ccc4[nH]ncc4c3)cs2)cc1 [Compound 192] | 100 to 1000 | >90 | 100 to 1000 | >90 |
| Nc1cnc(C(=O)NCC(=O)Nc2nc(-c3cccc(-c4ccncc4)c3)cs2)nc1 [Compound 193, 5-amino-N-[2-oxo-2-[[4-[3-(4-pyridyl)phenyl]thiazol-2-yl]amino]ethyl]pyrimidine-2-carboxamide] | 100 to 1000 | >80 | 100 to 1000 | >90 |
| CNCc1cc(-c2cccc(-c3csc(NC(=O)CNC(=O)c4ccc(N)cc4)n3)c2)ccn1 [Compound 196, 4-amino-N-[2-[[4-[3-[2-(methylaminomethyl)-4-pyridyl]phenyl]thiazol-2-yl]amino]-2-oxo-ethyl]benzamide] | 100 to 1000 | >95 | 100 to 1000 | >90 |
| Nc1ccc(C(=O)NCC(=O)Nc2nc(-c3cccc(COc4ccncc4)c3)cs2)cc1 [Compound 197, 4-amino-N-[2-oxo-2-[[4-[3-(4-pyridyloxymethyl)phenyl]thiazol-2-yl]amino]ethyl]benzamide] | < 100 | >90 | < 100 | >80 |
| COc1cc(-c2cccc(-c3csc(NC(=O)CNC(=O)c4ccc(N)cn4)n3)c2)ccn1 [Compound 199, 5-amino-N-[2-[[4-[3-(2-methoxy-4-pyridyl)phenyl]thiazol-2-yl]amino]-2-oxo-ethyl]pyridine-2-carboxamide] | 100 to 1000 | >95 | 100 to 1000 | >95 |
| Nc1ccc(C(=O)NCC(=O)Nc2nc(-c3cccc(-c4ccnc(N5CCCCS5(=O)=O)c4)c3)cs2)cc1 [Compound 203, 4-amino-N-[2-[[4-[3-[2-(1,1-dioxothiazinan-2-yl)-4-pyridyl]phenyl]thiazol-2-yl]amino]-2-oxo-ethyl]benzamide] | 100 to 1000 | >80 | 100 to 1000 | >80 |
| CN1CCN(c2cccc(-c3csc(NC(=O)CNC(=O)c4ccc(N)cc4)n3)c2)CC1=O [Compound 204, 4-amino-N-[2-[[4-[3-(4-methyl-3-oxo-piperazin-1-yl)phenyl]thiazol-2-yl]amino]-2-oxo-ethyl]benzamide] | 100 to 1000 | >80 | 100 to 1000 | >70 |
| CNC(=O)Cc1cc(-c2cccc(-c3csc(NC(=O)CNC(=O)c4ccc(N)cc4)n3)c2)ccn1 [Compound 205, 4-amino-N-[2-[[4-[3-[2-[2-(methylamino)-2-oxo-ethyl]-4-pyridyl]phenyl]thiazol-2-yl]amino]-2-oxo-ethyl]benzamide] | < 100 | >95 | < 100 | >95 |
| CN(C)C(=O)CN(C)c1cc(-c2cccc(-c3csc(NC(=O)CNC(=O)c4ccc(N)cc4)n3)c2)ccn1 [Compound 206, 4-amino-N-[2-[[4-[3-[2-[[2-(dimethylamino)-2-oxo-ethyl]-methyl-amino]-4-pyridyl]phenyl]thiazol-2-yl]amino]-2-oxo-ethyl]benzamide] | 100 to 1000 | >95 | 100 to 1000 | >95 |
| Nc1ccc(C(=O)NCC(=O)Nc2nc(-c3cncc(-c4ccncc4)c3)cs2)cc1 [Compound 208, 4-amino-N-[2-oxo-2-[[4-[5-(4-pyridyl)-3-pyridyl]thiazol-2-yl]amino]ethyl]benzamide] | 100 to 1000 | >90 | 100 to 1000 | >80 |

Second part, the compound after the results:

| IC50 [1] [nM] | BRM Max % Inhibition [1] [%] | IC50 [2] [nM] | BRG1 Max % Inhibition [2] [%] | Compound |
| --- | --- | --- | --- | --- |
| 100 to 1000 | >90 | 100 to 1000 | >80 | Cc1cnccc1-c1cccc(-c2csc(NC(=O)CNC(=O)c3ccc(N)cc3)n2)c1 [Compound 194, 4-amino-N-[2-[[4-[3-(3-methyl-4-pyridyl)phenyl]thiazol-2-yl]amino]-2-oxo-ethyl]benzamide] |
| < 100 | >95 | < 100 | >95 | Cc1cc(-c2cccc(-c3csc(NC(=O)CNC(=O)c4ccc(N)cc4)n3)c2)ccn1 [Compound 195, 4-amino-N-[2-[[4-[3-(2-methyl-4-pyridyl)phenyl]thiazol-2-yl]amino]-2-oxo-ethyl]benzamide] |
| 100 to 1000 | >80 | 100 to 1000 | >60 | CC(C)(O)c1cccc(-c2csc(NC(=O)CNC(=O)c3ccc(N)cc3)n2)c1 [Compound 198, 4-amino-N-[2-[[4-[3-(1-hydroxy-1-methyl-ethyl)phenyl]thiazol-2-yl]amino]-2-oxo-ethyl]benzamide] |
| < 100 | >95 | < 100 | >95 | CN(CC(=O)O)c1cc(-c2cccc(-c3csc(NC(=O)CNC(=O)c4ccc(N)cc4)n3)c2)ccn1 [Compound 200, 2-[[4-[3-[2-[[2-[(4-aminobenzoyl)amino]acetyl]amino]thiazol-4-yl]phenyl]-2-pyridyl]-methyl-amino]acetic acid] |
| < 100 | >95 | < 100 | >95 | CNC(=O)CN(C)c1cc(-c2cccc(-c3csc(NC(=O)CNC(=O)c4ccc(N)cc4)n3)c2)ccn1 [Compound 202, 4-amino-N-[2-[[4-[3-[2-[methyl-[2-(methylamino)-2-oxo-ethyl]amino]-4-pyridyl]phenyl]thiazol-2-yl]amino]-2-oxo-ethyl]benzamide] |
| < 100 | >95 | < 100 | >95 | CC(C)c1cc(-c2cccc(-c3csc(NC(=O)CNC(=O)c4ccc(N)cc4)n3)c2)ccn1 [Compound 207, 4-amino-N-[2-[[4-[3-(2-isopropyl-4-pyridyl)phenyl]thiazol-2-yl]amino]-2-oxo-ethyl]benzamide] |
| < 100 | >95 | < 100 | >95 | COC(=O)C(C)(C)n1ccc(-c2cccc(-c3csc(NC(=O)CNC(=O)c4ccc(N)cc4)n3)c2)n1 [Compound 209, methyl 2-[3-[3-[2-[[2-[(4-aminobenzoyl)amino]acetyl]amino]thiazol-4-yl]phenyl]pyrazol-1-yl]-2-methyl-propanoate] |
| 100 to 1000 | >95 | 100 to 1000 | >80 | Nc1ccc(C(=O)NCC(=O)Nc2nc(-c3cccc(-c4ccn(CC(=O)O)n4)c3)cs2)cc1 [Compound 210, 2-[3-[3-[2-[[2-[(4-aminobenzoyl)amino]acetyl]amino]thiazol-4-yl]phenyl]pyrazol-1-yl]acetic acid] |
| 100 to 1000 | >95 | 100 to 1000 | >90 | CC(C)(N)c1cc(-c2cccc(-c3csc(NC(=O)CNC(=O)c4ccc(N)cc4)n3)c2)ccn1 [Compound 211, 4-amino-N-[2-[[4-[3-[2-(1-amino-1-methyl-ethyl)-4-pyridyl]phenyl]thiazol-2-yl]amino]-2-oxo-ethyl]benzamide] |
| 100 to 1000 | >95 | 100 to 1000 | >95 | CC(C)(C(=O)O)n1ccc(-c2cccc(-c3csc(NC(=O)CNC(=O)c4ccc(N)cc4)n3)c2)n1 [Compound 212, 2-[3-[3-[2-[[2-[(4-aminobenzoyl)amino]acetyl]amino]thiazol-4-yl]phenyl]pyrazol-1-yl]-2-methyl-propanoic acid] |
